In patent publication US8222263B2, “Inhibitors of hedgehog pathway” (Exelixis Patent Company LLC, priority 2007, dated 2012):

These compounds were tested on Gli-luciferase (firefly) reporter in SHh Light II cell line (NIH-3T3), Hedgehog pathway (assay: Light II Assay (SHh-Smo cell-based Gli-luciferase reporter assay)). Conditions: rSHh stimulated cells, 24 hours, % inhibition of luciferase signal.
Description: The SHh-Smo assay is a cell-based reporter assay in the SHh Light II cell line (NIH-3T3), available through the American Tissue Culture Center (ATCC). […] In addition, this cell line contains a constitutively expressed renilla luciferase reporter (via CMV promoter) which can be used as a readout to detect any non-specific compound effects, including cytotoxicity.
Test compounds were serially diluted in DMSO and 1.5 μL aliquots were transferred to 384-well non-binding plates. Compounds were diluted with 85 μL of assay media (DMEM+0.5% FBS, 5 mM Hepes, 1% NEAA, 1% PenStrep, 0.8% Geneticin). Cell plates were prepared by adding 50 μL of assay media (240 cells/μL) to white TC coated 384-well plates (final cell concentration is 12,000 cells/well). Cell plates were incubated overnight at 37° C.
Media was removed from the cell plates and 30 μL of compound in assay media+rSHh (1.5 μg/well) was added to the cell plates. Plates were incubated at 37° C. for 24 hours. Following overnight incubation, media was aspirated from the cell plates and 20 μL of luciferase media (Bright-glo, Promega) was added to the cell. Cells were incubated for 5 minutes and measured on an Envision™ plate reader (Perkn Elmer) using the luciferase detection protocol. IC50 values were calculated as a percentage inhibition of luciferase signal from rSHh stimulated cells compared to unstimulated cells.

SMILES	IC50
Cc1ccc(CN2CCOCC2)cc1NC(=O)c1ccc(Nc2nc(-c3ccccc3)c3ccccc3n2)c(F)c1 [3-fluoro-N-[2-methyl-5-(morpholin-4-ylmethyl)phenyl]-4-[(4-phenylquinazolin-2-yl)amino]benzamide]	6.2 nM
Cc1cccc(C)c1NC(=O)c1ccc(Nc2nc(C3CC3)c3ccccc3n2)cc1 [4-[(4-cyclopropylquinazolin-2-yl)amino]-N-(2,6-dimethylphenyl)benzamide]	2.8 nM
O=C(c1ccccc1)N1CCC(Nc2nc(-c3ccccc3)c3ccccc3n2)CC1 [4-phenyl-N-[1-(phenylcarbonyl)piperidin-4-yl]quinazolin-2-amine]	68.4 nM
Cc1ccc(CN2CCOCC2)cc1NC(=O)c1ccc(Nc2nc(C(C)C)c3ccccc3n2)cc1 [4-{[4-(1-methylethyl)quinazolin-2-yl]amino}-N-[2-methyl-5-(morpholin-4-ylmethyl)phenyl]benzamide]	17.8 nM
Cc1cccc(C)c1NC(=O)c1cc(Nc2nc(-c3ccccc3)c3ccccc3n2)c(Cl)s1 [5-chloro-N-(2,6-dimethylphenyl)-4-[(4-phenylquinazolin-2-yl)amino]thiophene-2-carboxamide]	166 nM
Cc1cccc(C)c1NC(=O)c1ccc(Nc2nc3c(c(-c4ccccc4)n2)CCC3)cc1 [N-(2,6-dimethylphenyl)-4-[(4-phenyl-6,7-dihydro-5H-cyclopenta[d]pyrimidin-2-yl)amino]benzamide]	25.8 nM
Cc1cccc(C)c1NC(=O)c1ccc(Nc2nc(-c3ccccc3)c3cccnc3n2)cc1 [N-(2,6-dimethylphenyl)-4-[(4-phenylpyrido[2,3-d]pyrimidin-2-yl)amino]benzamide]	3.6 nM
Cc1cccc(C)c1NC(=O)c1ccc(Nc2nc3c(c(-c4ccccc4)n2)CN(Cc2ccccc2)CC3)cc1 [N-(2,6-dimethylphenyl)-4-{[4-phenyl-6-(phenylmethyl)-5,6,7,8-tetrahydropyrido[4,3-d]pyrimidin-2-yl]amino}benzamide]	156 nM
CN1CCc2ccc(NC(=O)c3ccc(Nc4nc(-c5ccccc5)c5ccccc5n4)cc3)cc2C1 [N-(2-methyl-1,2,3,4-tetrahydroisoquinolin-7-yl)-4-[(4-phenylquinazolin-2-yl)amino]benzamide]	5.8 nM
Cc1ccc(CN(C)Cc2ccccc2)cc1NC(=O)c1ccc(Nc2nc(C)c3ccccc3n2)cc1 [N-(2-methyl-5-{[methyl(phenylmethyl)amino]methyl}phenyl)-4-[(4-methylquinazolin-2-yl)amino]benzamide]	3.4 nM
Cc1ccc(C(=O)NCCN(C)C)cc1NC(=O)c1ccc(Nc2nc(-c3ccccc3)c3ccccc3n2)cc1 [N-[2-(dimethylamino)ethyl]-4-methyl-3-[({4-[(4-phenylquinazolin-2-yl)amino]phenyl}carbonyl)amino]benzamide]	16.4 nM
Cc1ccc(-c2ccn[nH]2)cc1NC(=O)c1ccc(Nc2nc(-c3ccccc3)c3ccccc3n2)cc1 [N-[2-methyl-5-(1H-pyrazol-5-yl)phenyl]-4-[(4-phenylquinazolin-2-yl)amino]benzamide]	6.3 nM
Cc1ccc(OCCN2CCOCC2)cc1NC(=O)c1ccc(Nc2nc(-c3ccccc3)c3ccccc3n2)cc1 [N-{2-methyl-5-[(2-morpholin-4-ylethyl)oxy]phenyl}-4-[(4-phenylquinazolin-2-yl)amino]benzamide]	6.2 nM
CN(C)Cc1cccc(NC(=O)c2ccc(Nc3nc(-c4ccccc4)c4ccccc4n3)cc2)c1 [N-{3-[(dimethylamino)methyl]phenyl}-4-[(4-phenylquinazolin-2-yl)amino]benzamide]	6.1 nM
CCN1CCN(C(=O)c2ccc(C)c(NC(=O)c3ccc(Nc4nc(-c5ccccc5)c5ccccc5n4)cc3)c2)CC1 [N-{5-[(4-ethylpiperazin-1-yl)carbonyl]-2-methylphenyl}-4-[(4-phenylquinazolin-2-yl)amino]benzamide]	23.9 nM
Cc1ccc(CN(C)C)cc1NC(=O)c1ccc(Nc2nc(-c3cccs3)c3ccccc3n2)cc1 [N-{5-[(dimethylamino)methyl]-2-methylphenyl}-4-{[4-(2-thienyl)quinazolin-2-yl]amino}benzamide]	21 nM
